Assay results: publication PMC4281103 (Journal of Medicinal Chemistry, 2014)

Assays:
[1] = molecular target: human κ-opioid receptor (Homo sapiens, UniProt P41145); assay type: cell-based
[2] = tested on: male Sprague–Dawley rats; experiment: Rat reinstatement assay: cocaine-prime-induced reinstatement of drug seeking; assay type: in vivo; details: for inactive lever pressing during self-administration, extinction and reinstatement: 2 1.0 mg/kg, 24 1.0 mg/kg, 36 0.3 mg/kg; for dose required to significantly reduce active lever responses: ip, cocaine-prime-induced reinstatement, rat
[3] = tested on: male Sprague–Dawley rats; experiment: Rat spontaneous locomotor activity; assay type: in vivo; details: acute ip; 2 1.0 mg/kg, 24 1.0 mg/kg, 36 0.3 mg/kg; total ambulatory counts over 60 min
[4] = molecular target: human μ-opioid receptor (Homo sapiens, UniProt P35372); experiment: Inhibition of forskolin-induced cAMP accumulation in MOR-CHO cells; assay type: cell-based; details: selectivity for KOR
[5] = tested on: male Sprague–Dawley rats; details: rat, in vivo; cited from earlier work

Chain of human μ-opioid receptor (P35372 whole entry): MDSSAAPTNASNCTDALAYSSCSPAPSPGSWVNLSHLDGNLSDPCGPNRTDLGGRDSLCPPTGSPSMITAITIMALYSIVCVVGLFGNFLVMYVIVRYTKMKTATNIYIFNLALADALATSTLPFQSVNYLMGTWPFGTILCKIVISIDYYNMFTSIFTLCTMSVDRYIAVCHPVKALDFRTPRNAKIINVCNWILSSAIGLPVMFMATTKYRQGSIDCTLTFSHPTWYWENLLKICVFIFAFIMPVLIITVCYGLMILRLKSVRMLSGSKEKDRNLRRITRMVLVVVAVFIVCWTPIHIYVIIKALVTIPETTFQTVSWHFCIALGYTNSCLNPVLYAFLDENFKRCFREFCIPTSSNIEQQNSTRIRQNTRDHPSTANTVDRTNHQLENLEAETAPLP
Chain of human κ-opioid receptor (P41145 whole entry): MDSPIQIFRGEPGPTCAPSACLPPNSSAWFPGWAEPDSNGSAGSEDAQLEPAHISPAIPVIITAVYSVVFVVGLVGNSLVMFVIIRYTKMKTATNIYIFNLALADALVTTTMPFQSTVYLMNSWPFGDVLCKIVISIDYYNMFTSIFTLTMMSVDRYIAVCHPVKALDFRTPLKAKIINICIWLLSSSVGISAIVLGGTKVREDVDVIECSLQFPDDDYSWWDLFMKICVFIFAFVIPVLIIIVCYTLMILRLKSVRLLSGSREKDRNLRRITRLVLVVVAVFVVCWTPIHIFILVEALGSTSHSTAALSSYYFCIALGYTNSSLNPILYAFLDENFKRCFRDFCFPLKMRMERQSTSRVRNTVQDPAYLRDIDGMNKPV

SMILES | inactive lever pressing during self-administration, extinction and reinstatement [2] | effect on spontaneous locomotor activity vs vehicle-treated animals [3] | activity at the MOR [4] | dose required to significantly reduce active lever responses [2] | other results
COC(=O)[C@@H]1C[C@H](OC(C)=O)C(=O)[C@H]2[C@@]1(C)CC[C@H]1C(=O)O[C@H](c3ccoc3C=O)C[C@]21C [Compound 49, (2S,4aR,6aR,7R,9S,10aS,10bR)-Methyl 9-Acetoxy-2-(2-formylfuran-3-yl)-6a,10b-dimethyl-4,10-dioxododecahydro-1H-benzo[f]isochromene-7-carboxylate] |  |  |  |  | times less potent than 29 (KOR) [1]: approximately 7 times
COC(=O)[C@@H]1C[C@H](OC(C)=O)C(=O)[C@H]2[C@@]1(C)CC[C@H]1C(=O)O[C@H](c3ccoc3C)C[C@]21C [Compound 24] | no significant changes | no significant difference | no activity at the MOR |  | 
COC(=O)[C@@H]1C[C@H](OC(C)=O)C(=O)[C@H]2[C@@]1(C)CC[C@H]1C(=O)O[C@H](c3ccoc3)C[C@]21C [Compound 1, Salvinorin A] |  |  |  |  | effect on drug-seeking behavior and spontaneous locomotor activity [5]: reduces drug-seeking behavior at a dose that does not affect spontaneous locomotor activity
C#Cc1occc1[C@@H]1C[C@]2(C)[C@H]3C(=O)[C@@H](OC(C)=O)C[C@@H](C(=O)OC)[C@]3(C)CC[C@H]2C(=O)O1 [Compound 36] | no significant changes | no significant difference | no activity at the MOR | 0.1 mg/kg | 
COC(=O)[C@@H]1C[C@H](OC(C)=O)C(=O)[C@H]2[C@@]1(C)CC[C@H]1C(=O)O[C@H](c3ccoc3Br)C[C@]21C [Compound 2] | no significant changes | no significant difference | no activity at the MOR | 0.3 mg/kg | 
COC(=O)[C@@H]1C[C@H](OC(C)=O)C(=O)[C@H]2[C@@]1(C)CC[C@H]1C(=O)O[C@H](c3ccoc3C#N)C[C@]21C [Compound 50, (2S,4aR,6aR,7R,9S,10aS,10bR)-Methyl 9-Acetoxy-2-(2-cyanofuran-3-yl)-6a,10b-dimethyl-4,10-dioxododecahydro-1H-benzo[f]isochromene-7-carboxylate] |  |  |  |  | times less potent than 36 (KOR) [1]: more than 500 times
